Experimental data reported in patent US10952999B2, “Inhibitor of cyclin-dependent kinase CDK9” (GENFLEET THERAPEUTICS (SHANGHAI) INC., priority 2017, dated 2021).

Key:
Format in all cases: cell-based
[1] = tested on: human non-small cell lung cancer cell H2122; assay: Cancer cell growth, Cell Titer-Glo cell viability assay, 72 hours; settings: NCI-H2122, H2122, 72 hours
From the text: (§1) In the examples, we used acute myelocytic leukemia (AML) OCI-AML-3, acute promyelocytic leukemia cell line NB-4, MDS-RAEB (myelodysplastic syndrome-excess blasts type) cell line SKM-1, human leukemia cell Nomo-1, acute myeloid leukemia cell line MOLM14, acute myeloid leukemia cell line MOLM13, acute myeloid leukemia cell line MV4-11, acute myeloid leukemia cell line HL-60, acute myeloid leukemia cell line OCI-AML-2, histiocytic lymphoma U-937, acute B cell leukemia cell line MEC-1, acute B cell leukemia cell line MEC-2, acute megakaryoblastic leukemia CMK, hamster lung cell CHL, hamster ovary cell CHO, human non-small cell lung cancer cell H1975, human non-small cell lung cancer cell H358, human small cell lung cancer cell H209, human lung adenocarcinoma cell H1395, human non-small cell lung cancer cell PC-9, human lung cancer cell H3122, human non-small cell lung cancer cell H2122, human non-small cell lung cancer cell H1915, human lung adenocarcinoma cell H1355, human non-small cell lung cancer cell HCC827, human breast cancer cell MDA-MB-231, human breast cancer cell MDA-MB-468, human breast cancer cell MCF-7, human breast cancer cell T47D, human breast cancer cell SK-Br-3, the above cells were purchased from ATCC.
(§2) Cell Titer-Glo® (Promega, USA) chemical self-luminescence cell viability assay kit was used to detect the number of viable cells by quantitatively measuring ATP in living cells, according to which to calculate GI50 and IC50.

[2] = tested on: human small cell lung cancer cell H209; assay: as above; settings: NCI-H209, H209, 72 hours
From the text: as §1, §2

[3] = tested on: human breast cancer cell MDA-MB-231; assay: as above; settings: MDA-MB-231, 72 hours
From the text: as §1, §2

[4] = tested on: human lung adenocarcinoma cell H1355; assay: as above; settings: NCI-H1355, H1355, 72 hours
From the text: as §1, §2

[5] = tested on: acute myeloid leukemia cell line OCI-AML-2; assay: as above; settings: Homo sapiens; OCI-AML2, 72 hours
From the text: as §1, §2

[6] = tested on: human breast cancer cell SK-Br-3; assay: as above; settings: SK-Br-3, 72 hours
From the text: as §1, §2

[7] = tested on: histiocytic lymphoma U-937; assay: as above; settings: Homo sapiens; U-937, 72 hours
From the text: as §1, §2

[8] = tested on: human non-small cell lung cancer cell H358; assay: as above; settings: NCI-H358, H358, 72 hours
From the text: as §1, §2

[9] = tested on: human breast cancer cell MCF-7; assay: as above; settings: MCF7, MCF-7, 72 hours
From the text: as §1, §2

[10] = tested on: human lung adenocarcinoma cell H1395; assay: as above; settings: NCI-H1395, H1395, 72 hours
From the text: as §1, §2

[11] = tested on: acute B cell leukemia cell line MEC-2; assay: as above; settings: MEC2; MEC-2, 72 hours
From the text: as §1, §2

[12] = tested on: acute myeloid leukemia cell line MOLM13; assay: as above; settings: Homo sapiens; MOLM-13, 72 hours
From the text: as §1, §2

[13] = tested on: human leukemia cell Nomo-1; assay: as above; settings: Homo sapiens; Nomo-1, 72 hours
From the text: as §1, §2

[14] = tested on: acute myeloid leukemia cell line MV4-11; assay: as above; settings: Homo sapiens; MV4-11, 72 hours
From the text: as §1, §2

[15] = tested on: human non-small cell lung cancer cell H1915; assay: as above; settings: NCI-H1915, H1915, 72 hours
From the text: as §1, §2

[16] = tested on: human non-small cell lung cancer cell H1975; assay: as above; settings: NCI-H1975, H1975, 72 hours
From the text: as §1, §2

[17] = tested on: acute myeloid leukemia cell line HL-60; assay: as above; settings: Homo sapiens; HL-60, 72 hours
From the text: as §1, §2

[18] = tested on: acute megakaryoblastic leukemia CMK; assay: as above
From the text: as §1, §2

[19] = tested on: acute myelocytic leukemia (AML) OCI-AML-3; assay: as above; settings: Homo sapiens, OCI-AML-3; OCI-AML3, 72 hours
From the text: as §1, §2

hamster ovary cell CHO = assay: as above
From the text: as §1, §2

[20] = tested on: acute B cell leukemia cell line MEC-1; assay: as above; settings: Homo sapiens, MEC1; MEC-1, 72 hours
From the text: as §1, §2

[21] = tested on: human lung cancer cell H3122; assay: as above; settings: NCI-H3122, H3122, 72 hours
From the text: as §1, §2

[22] = tested on: MDS-RAEB (myelodysplastic syndrome-excess blasts type) cell line SKM-1; assay: as above; settings: Homo sapiens; SKM-1, 72 hours
From the text: as §1, §2

[23] = tested on: human non-small cell lung cancer cell PC-9; assay: as above; settings: PC-9, 72 hours
From the text: as §1, §2

[24] = tested on: acute promyelocytic leukemia cell line NB-4; assay: as above; settings: NB4, 72 hours
From the text: as §1, §2

hamster lung cell CHL = assay: as above
From the text: as §1, §2

[25] = tested on: human breast cancer cell MDA-MB-468; assay: as above; settings: MDA-MB-468, 72 hours
From the text: as §1, §2

[26] = tested on: human non-small cell lung cancer cell HCC827; assay: as above; settings: HCC827, 72 hours
From the text: as §1, §2

[27] = tested on: human breast cancer cell T47D; assay: as above
From the text: as §1, §2

[28] = tested on: acute myeloid leukemia cell line MOLM14; assay: as above; settings: Homo sapiens; MOLM-14, 72 hours
From the text: as §1, §2

[29] = tested on: human non-small cell lung cancer cells, human small cell lung cancer cells, lung adenocarcinoma cells, and breast cancer cells; assay: Cancer cell growth, cells of cancer type other than hematological cancer as a panel; settings: lung and breast cancer cells of table 3
From the text: as §1, with “ATCC. […]” for “ATCC.”

`COC[C@@H](C)N[C@H]1CC[C@H](Nc2cc(-c3csc(NCC4(C#N)CCOCC4)n3)c(Cl)cn2)CC1` [Compound 1, 4-(((4-(5-chloro-2-(((1R,4r)-4-(((R)-1-methoxypropyl-2-yl)amino)cyclohexyl)amino)pyridin-4-yl)thiazol-2-yl)amino)methyl)tetrahydro-2H-pyran-4-carbonitrile] was tested, and the IC50 [1] was 49 nM, the IC50 [2] was 86 nM and the IC50 [3] was 74 nM. It also gave an IC50 [4] of 100 nM, a GI50 [5] of 33 nM and an IC50 [6] of 40 nM. It also gave a GI50 [7] of 17 nM, an IC50 [8] of 43 nM and an IC50 [9] of 6 nM. The IC50 [10] was 120 nM, the GI50 [11] was 25 nM and the GI50 [12] was 25 nM. The GI50 [13] was 45 nM, the GI50 [14] was 14 nM and the IC50 [15] was 37 nM. It also gave an IC50 [16] of 42 nM, a GI50 [17] of 32 nM and a GI50 [18] of 49 nM. For the same compound, the GI50 [19] was 33 nM, the “inhibitory effect on normal cell CHO (in words)” value (hamster ovary cell CHO; CHO cells) was “no inhibitory effect” and the GI50 (hamster ovary cell CHO; CHO, 72 hours) was 1600 nM. The GI50 [20] was 47 nM, the IC50 [21] was 11 nM and the GI50 [22] was 33 nM. The IC50 [23] was 90 nM, the GI50 [24] was 35 nM and the “inhibitory effect on normal cell CHL (in words)” value (hamster lung cell CHL; CHL cells) was “no inhibitory effect”. The GI50 (hamster lung cell CHL; CHL, 72 hours) was 1100 nM, the IC50 [25] was 18 nM and the IC50 [26] was 60 nM. The IC50 [27] was 55 nM, the GI50 [28] was 25 nM and the “inhibitory effects on cancer cells tested (in words)” value [29] was “significant inhibitory effects”.
